Molecular target: T1, PPARδ (Homo sapiens, UniProt Q03181)
T1 construct: expressed in transfected cells; host or cells: Hela cells
T1 sequence (Q03181 1-441): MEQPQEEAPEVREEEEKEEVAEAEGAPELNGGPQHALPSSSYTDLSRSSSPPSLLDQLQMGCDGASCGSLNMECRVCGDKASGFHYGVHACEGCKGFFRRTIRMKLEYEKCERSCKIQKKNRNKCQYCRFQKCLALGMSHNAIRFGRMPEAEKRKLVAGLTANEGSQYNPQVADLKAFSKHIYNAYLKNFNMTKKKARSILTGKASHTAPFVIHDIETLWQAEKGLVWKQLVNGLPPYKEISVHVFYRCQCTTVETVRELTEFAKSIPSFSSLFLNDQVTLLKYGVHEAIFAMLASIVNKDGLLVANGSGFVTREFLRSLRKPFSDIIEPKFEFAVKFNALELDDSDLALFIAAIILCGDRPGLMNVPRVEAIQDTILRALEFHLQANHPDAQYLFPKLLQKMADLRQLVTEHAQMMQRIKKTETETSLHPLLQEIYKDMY
Assay: Hela cell/luciferase reporter gene method, PPARδ agonist activity
Assay type: cell-based
Conditions: for EC50: Hela cells, pPPRE3-TK-Luciferase reporter, 24 hrs incubation, read-out: agonistic activity on PPARδ (EC50)
Protocol: This example measures the biological activity of a PPAR agonist using the Hela cell/luciferase reporter gene method.
The target plasmids PCMV PPARα (Ampicillin+), PCMV PPARγ (Ampicillin+), PCMV PPARδ (Ampicillin+), and pPPRE3-TK-Luciferase (Ampicillin+) were introduced into DH5a competent cells by heat shock treatment, respectively. After being incubated for 1 hour at 37° C. with shaking (180 rpm), the cells were inoculated on LB agar solid medium containing antibiotic Ampicillin, and invertedly cultured at 37° C. for 12-16 hours. Then the monoclonal colony cultured on the medium was taken and inoculated into LB liquid medium for expanded culture. […] The plasmid obtained by centrifugation was suspended in TE buffer, and the plasmid concentration was measured and the mixture was stored at −20° C. Hela cells in the exponential phase were seeded in 6-well plates (8-10^5 cells/well), and after 6-8 hours of culture, the cells were transfected using Lipofectamine® 3000 Transfection Reagent (Invitrogen; #L3000015). A plasmid containing a PPAR binding site (peroxisome proliferator response element, PPRE) and a firefly luciferase gene (pPPRE3-TK-Luciferase) and PPAR expression vector were co-transfected into a Hela cell with a total amount of plasmid DNA of 2.5 ug (the mass ratio of each PPAR expression vector is pPPRE:PPARα=6:1, pPPRE:PPARδ=8:1, and pPPRE:PPARγ=2:1) to construct a drug screening cell model for PPAR agonists. PPAR was binded to the ligand and then binded to the peroxisome proliferator response element (PPRE), thereby initiating downstream firefly luciferase expression and its expression intensity was directly proportional to the degree of PPAR activation. The cells after 24 hours transfection were prepared into a cell suspension with a cell concentration of […] by a complete culture solution, and seeded into a 96-well plate with 100 ul per well. After overnight culture, the medium was changed to a medium containing 1% FBS. 10 mM candidate compound stock (1000×) were 4-fold diluted in DMSO for 8 points, then supplemented with medium containing 1% FBS to a final concentration of 50 uM (5×) by addition of 25 μl of 5× compound diluent to each well in different concentration gradients and incubated under 37° C., 5% CO2 incubator for 24 hrs. The 96-well plate was taken out and 30 μl of Bright-Glo™ Luciferase Assay System (Promega #E2620) was added to each well. The Luciferase luminescence intensity was measured by a SynergyH1 full-function microplate detector. The obtained data was used to calculate EC50 using GraphPad Prism 5.0 software to determine the biological activity of the compound.

| SMILES | EC50 | increased activity for activation of PPARδ compared with Elafibranor (compared with Elafibranor) |
| --- | --- | --- |
| CSc1ccc(C(=O)/C=C/c2cc(C)c(OC(C)(C)C(=O)O)c(C)c2)c2occc12 [Compound 5, (E)-2-(2,6-dimethyl-4-(3-(4-(methylthio)benzofuran-7-yl)-3-oxoprop-1-en-1-yl)phenoxy)-2-methylpropanoic acid] | 36 nM | – |
| CCSc1ccc(C(=O)/C=C/c2cc(C)c(OC(C)(C)C(=O)O)c(C)c2)c2occc12 [Compound 6, (E)-2-(4-(3-(4-(ethylthio)benzofuran-7-yl)-3-oxoprop-1-en-1-yl)-2,6-dimethylphenoxy)-2-methylpropanoic acid] | 119 nM | – |
| CSc1ccc(C(=O)/C=C/c2cc(C)c(OC(C)(C)C(=O)O)c(C)c2)c2ccoc12 [Compound 27, (E)-2-(2,6-dimethyl-4-(3-(7-(methylthio)benzofuran-4-yl)-3-oxoprop-1-en-1-yl)phenoxy)-2-methylpropanoic acid] | 604 nM | – |
| Cc1cc(/C=C/C(=O)c2ccc3c(c2)CCS3)cc(C)c1OC(C)(C)C(=O)O [Compound 36, (E)-2-(4-(3-(2,3-dihydrobenzo[b]thiophen-5-yl)-3-oxoprop-1-en-1-yl)-2,6-dimethylphenoxy)-2-methylpropanoic acid] | 120 nM | – |
| COc1ccc2cc(C(=O)/C=C/c3cc(C)c(OC(C)(C)C(=O)O)c(C)c3)oc2c1 [Compound 43, (E)-2-(4-(3-(6-methoxybenzofuran-2-yl)-3-oxoprop-1-en-1-yl)-2,6-dimethylphenoxy)-2-methylpropanoic acid] | 335 nM | – |
| CSc1ccc2cc(C(=O)/C=C/c3cc(C)c(OC(C)(C)C(=O)O)c(C)c3)oc2c1 [Compound 51, (E)-2-(2,6-dimethyl-4-(3-(6-(methylthio)benzofuran-2-yl)-3-oxoprop-1-en-1-yl)phenoxy)-2-methylpropanoic acid] | 64.9 nM | 2 fold |
| CSc1cccc2oc(C(=O)/C=C/c3cc(C)c(OC(C)(C)C(=O)O)c(C)c3)cc12 [Compound 60, (E)-2-(2,6-dimethyl-4-(3-(4-(methylthio)benzofuran-2-yl)-3-oxoprop-1-en-1-yl)phenoxy)-2-methylpropanoic acid] | 614 nM | – |
| CSc1ccc2c(C)c(C(=O)/C=C/c3cc(C)c(OC(C)(C)C(=O)O)c(C)c3)oc2c1 [Compound 62, (E)-2-(2,6-dimethyl-4-(3-(3-methyl-6-(methylthio)benzofuran-2-yl)-3-oxoprop-1-en-1-yl)phenoxy)-2-methylpropanoic acid] | 210 nM | – |
| CCc1c(C(=O)/C=C/c2cc(C)c(OC(C)(C)C(=O)O)c(C)c2)oc2cc(SC)ccc12 [Compound 63, (E)-2-(4-(3-(3-ethyl-6-(methylthio)benzofuran-2-yl)-3-oxoprop-1-en-1-yl)-2,6-dimethylphenoxy)-2-methylpropanoic acid] | 205 nM | – |
| CCSc1ccc2c(C)c(C(=O)/C=C/c3cc(C)c(OC(C)(C)C(=O)O)c(C)c3)oc2c1 [Compound 74, (E)-2-(4-(3-(6-(ethylthio)-3-methylbenzofuran-2-yl)-3-oxoprop-1-en-1-yl)-2,6-dimethylphenoxy)-2-methylpropanoic acid] | 144 nM | – |
| CSc1ccc2cc(C(=O)/C=C/c3cc(C)c(OC(C)(C)C(=O)O)c(C)c3)sc2c1 [Compound 81, (E)-2-(2,6-dimethyl-4-(3-(6-(methylthio)benzo[b]thiophen-2-yl)-3-oxoprop-1-en-1-yl)phenoxy)-2-methylpropanoic acid] | 3640 nM | – |
| CSc1ccc2cc(C(=O)/C=C/c3cc(Cl)c(OC(C)(C)C(=O)O)c(Cl)c3)oc2c1 [Compound 100, (E)-2-(2,6-dichloro-4-(3-(6-(methylthio)benzofuran-2-yl)-3-oxoprop-1-en-1-yl)phenoxy)-2-methylpropanoic acid] | 87.1 nM | – |
| CSc1ccc2c(C)c(C(=O)/C=C/c3cc(Cl)c(OC(C)(C)C(=O)O)c(Cl)c3)oc2c1 [Compound 103, (E)-2-(2,6-dichloro-4-(3-(3-methyl-6-(methylthio)benzofuran-2-yl)-3-oxoprop-1-en-1-yl)phenoxy)-2-methylpropanoic acid] | 164 nM | – |

Source: patent US11306102B2, “1,3-di-substituted ketene compound and application thereof” (BEBETTER MED INC., priority 2017, dated 2022)
